PubChem BioAssay (NCI)
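Exposure lasted 48 hours, with cells grown in 96-well plates and compounds tested at five concentrations. GI50: concentration for 50% inhibition of growth. TGI: concentration producing complete growth inhibition.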

Tests used:
Experiment in all cases: NCI tumour cell line growth inhibition, 48 h
[1] = system: SF-268 CNS
[2] = system: MOLT-4 leukemia
[3] = system: HOP-92 NSCLC
[4] = system: NCI-H226 lung
[5] = system: SK-MEL-5 melanoma
[6] = system: RXF 393 renal
[7] = system: SNB-75 CNS
[8] = system: OVCAR-5 ovarian
[9] = system: U251 CNS
[10] = system: SF-295 CNS
[11] = system: HCC-2998 colon
[12] = system: SR leukemia
[13] = system: HL-60(TB) leukemia
[14] = system: TK-10 renal
[15] = system: OVCAR-8 ovarian
[16] = system: NCI-H460 lung
[17] = system: NCI-H522 lung
[18] = system: HCT-15 colon
[19] = system: MDA-MB-435
[20] = system: K-562 leukemia
[21] = system: NCI-H23 lung
[22] = system: KM12 colon
[23] = system: M14 melanoma
[24] = system: HCT-116 colon
[25] = system: UACC-257 melanoma
[26] = system: SK-OV-3 ovarian
[27] = system: DU-145 prostate
[28] = system: CAKI-1 renal
[29] = system: LOX IMVI melanoma
[30] = system: A549 NSCLC
[31] = system: T-47D breast
[32] = system: MALME-3M melanoma
[33] = system: EKVX NSCLC
[34] = system: IGROV1 ovarian
[35] = system: COLO 205 colon
[36] = system: HS 578T breast
[37] = system: 786-0 renal
[38] = system: SNB-19 CNS
[39] = system: NCI/ADR-RES ovarian
[40] = system: CCRF-CEM leukemia
[41] = system: SW-620 colon
[42] = system: SF-539 CNS
[43] = system: UO-31 renal
[44] = system: HOP-62 NSCLC
[45] = system: SK-MEL-28 melanoma
[46] = system: OVCAR-4 ovarian
[47] = system: SN12C renal
[48] = system: PC-3 prostate
[49] = system: A498 renal
[50] = system: ACHN renal
[51] = system: UACC-62 melanoma
[52] = system: OVCAR-3 ovarian
[53] = system: MDA-MB-231 breast
[54] = system: RPMI-8226 leukemia
[55] = system: HT29 colon
[56] = system: MCF7 breast
[57] = system: BT-549 breast

Nc1ccccc1C#C/C=C\C#Cc1cccc(O)c1 was tested. Which GI50 [1] did it give?
Its GI50 is 7.93 µM.

And the TGI [1]?
Its TGI is 44.5 µM.

What about the GI50 [2] of the same compound?
The GI50 was 3.21 µM.

What about the TGI [2] of the same compound?
The TGI was 23.7 µM.

What about the GI50 [3] of the same compound?
Its GI50 is 11.9 µM.

And the TGI [3]?
Its TGI is over 51.2 µM.

What about the GI50 [4] of the same compound?
The GI50 was 6.03 µM.

What about the TGI [4] of the same compound?
The TGI was 20.9 µM.

What about the GI50 [5] of the same compound?
The GI50 was 2.47 µM.

And the TGI [5]?
Its TGI is 14.5 µM.

And the GI50 [6]?
Its GI50 is 0.423 µM.

What about the TGI [6] of the same compound?
Its TGI is 5.02 µM.

What about the GI50 [7] of the same compound?
The GI50 was 1.36 µM.

And the TGI [7]?
The TGI was 13.5 µM.

What about the GI50 [8] of the same compound?
The GI50 was 7.64 µM.

And the TGI [8]?
The TGI was 23 µM.

And the GI50 [9]?
The GI50 was 4.09 µM.

What about the TGI [9] of the same compound?
Its TGI is 17.1 µM.

What about the GI50 [10] of the same compound?
The GI50 was 2.19 µM.

What about the TGI [10] of the same compound?
The TGI was 8.29 µM.

What about the GI50 [11] of the same compound?
Its GI50 is 3.98 µM.

And the TGI [11]?
Its TGI is 9.08 µM.

And the GI50 [12]?
The GI50 was 1.55 µM.

And the TGI [12]?
The TGI was 6.13 µM.

And the GI50 [13]?
Its GI50 is 4.15 µM.

What about the TGI [13] of the same compound?
The TGI was 21.2 µM.

What about the GI50 [14] of the same compound?
The GI50 was 8.73 µM.

And the TGI [14]?
Its TGI is 29.7 µM.

And the GI50 [15]?
Its GI50 is 0.663 µM.

What about the TGI [15] of the same compound?
Its TGI is 13.9 µM.

And the GI50 [16]?
Its GI50 is 3.19 µM.

What about the TGI [16] of the same compound?
Its TGI is over 34.2 µM.

And the GI50 [17]?
Its GI50 is 1.09 µM.

What about the TGI [17] of the same compound?
Its TGI is 11.5 µM.

What about the GI50 [18] of the same compound?
Its GI50 is 2.04 µM.

What about the TGI [18] of the same compound?
Its TGI is 13.9 µM.

And the GI50 [19]?
The GI50 was 1.5 µM.

And the TGI [19]?
Its TGI is 4.12 µM.

What about the GI50 [20] of the same compound?
Its GI50 is 3.81 µM.

What about the TGI [20] of the same compound?
The TGI was 30.6 µM.

What about the GI50 [21] of the same compound?
The GI50 was 2.44 µM.

What about the TGI [21] of the same compound?
Its TGI is 9.38 µM.

What about the GI50 [22] of the same compound?
Its GI50 is 2.61 µM.

And the TGI [22]?
The TGI was 11.7 µM.

And the GI50 [23]?
Its GI50 is 1.3 µM.

What about the TGI [23] of the same compound?
The TGI was 5.65 µM.

What about the GI50 [24] of the same compound?
The GI50 was 2.73 µM.

And the TGI [24]?
The TGI was 12.2 µM.

And the GI50 [25]?
Its GI50 is 10.2 µM.

And the TGI [25]?
The TGI was 23.4 µM.

And the GI50 [26]?
Its GI50 is 3.03 µM.

And the TGI [26]?
Its TGI is 19.8 µM.

What about the GI50 [27] of the same compound?
Its GI50 is 16.8 µM.

And the TGI [27]?
The TGI was over 57.7 µM.

What about the GI50 [28] of the same compound?
Its GI50 is 8.08 µM.

What about the TGI [28] of the same compound?
The TGI was 36.2 µM.

What about the GI50 [29] of the same compound?
The GI50 was 0.579 µM.

And the TGI [29]?
The TGI was 10.8 µM.

And the GI50 [30]?
Its GI50 is 2.78 µM.

And the TGI [30]?
Its TGI is 15.7 µM.

What about the GI50 [31] of the same compound?
Its GI50 is 7.3 µM.

What about the TGI [31] of the same compound?
The TGI was over 60.8 µM.

What about the GI50 [32] of the same compound?
Its GI50 is 11.3 µM.

And the TGI [32]?
The TGI was over 43.4 µM.

What about the GI50 [33] of the same compound?
The GI50 was 2.69 µM.

What about the TGI [33] of the same compound?
The TGI was 23.4 µM.

What about the GI50 [34] of the same compound?
The GI50 was 0.646 µM.

And the TGI [34]?
The TGI was 12.3 µM.

What about the GI50 [35] of the same compound?
Its GI50 is 8.45 µM.

And the TGI [35]?
The TGI was 23 µM.

What about the GI50 [36] of the same compound?
The GI50 was 3.39 µM.

And the TGI [36]?
The TGI was 22.8 µM.

What about the GI50 [37] of the same compound?
Its GI50 is 3.89 µM.

What about the TGI [37] of the same compound?
Its TGI is 15.3 µM.

What about the GI50 [38] of the same compound?
Its GI50 is 17.1 µM.

And the TGI [38]?
Its TGI is over 55.7 µM.

And the GI50 [39]?
The GI50 was 2.39 µM.

What about the TGI [39] of the same compound?
Its TGI is 10.3 µM.

And the GI50 [40]?
Its GI50 is 8.12 µM.

And the TGI [40]?
The TGI was over 44 µM.

What about the GI50 [41] of the same compound?
The GI50 was 3.12 µM.

And the TGI [41]?
Its TGI is 15.2 µM.

And the GI50 [42]?
Its GI50 is 2.5 µM.

And the TGI [42]?
Its TGI is 11.5 µM.

And the TGI [43]?
The TGI was 13.9 µM.

What about the GI50 [44] of the same compound?
Its GI50 is 2.63 µM.

What about the TGI [44] of the same compound?
Its TGI is 12.1 µM.

What about the GI50 [45] of the same compound?
The GI50 was 8.97 µM.

And the TGI [45]?
The TGI was 31.9 µM.

What about the GI50 [46] of the same compound?
The GI50 was 6.68 µM.

What about the TGI [46] of the same compound?
The TGI was over 84.8 µM.

What about the GI50 [47] of the same compound?
Its GI50 is 2.66 µM.

What about the TGI [47] of the same compound?
Its TGI is 19.6 µM.

And the GI50 [48]?
The GI50 was 6.5 µM.

And the TGI [48]?
The TGI was 42.7 µM.

And the GI50 [49]?
Its GI50 is 11 µM.

And the TGI [49]?
The TGI was 35.9 µM.

And the GI50 [50]?
Its GI50 is 2.64 µM.

And the TGI [50]?
Its TGI is 18.8 µM.

And the GI50 [51]?
The GI50 was 1.87 µM.

What about the TGI [51] of the same compound?
Its TGI is 6.6 µM.

What about the GI50 [52] of the same compound?
The GI50 was 2.73 µM.

And the TGI [52]?
Its TGI is 14.7 µM.

And the GI50 [53]?
Its GI50 is 2.29 µM.

What about the TGI [53] of the same compound?
Its TGI is 14.1 µM.

And the GI50 [54]?
The GI50 was 2.51 µM.

And the TGI [54]?
The TGI was over 38.2 µM.

What about the GI50 [55] of the same compound?
The GI50 was 11.4 µM.

And the TGI [55]?
Its TGI is 41.7 µM.

And the GI50 [56]?
Its GI50 is 0.918 µM.

What about the TGI [56] of the same compound?
The TGI was 11.2 µM.

And the GI50 [57]?
Its GI50 is 7.12 µM.

What about the TGI [57] of the same compound?
The TGI was 25.8 µM.
